Laboratory results: PMC7801736 (ACS infectious diseases, 2019)
Values after ≈ are worked out from the molar mass of the structure shown. Read-outs that look alike come from different tables or passages of the source.

Legend:
[1] = test system: M. tuberculosis inhA overexpression strain mc^24914; assay: microbe, parasite or virus in culture; format: cell-based, Mycobacterium tuberculosis; conditions: for MIC: Mycobacterium tuberculosis
[2] = test system: M. tuberculosis strain H37Rv; format: cell-based, Mycobacterium tuberculosis; conditions: H37Rv background
[3] = test system: M. tuberculosis strain H37Rv; conditions: cited from earlier work
[4] = read-out: MIC (µM) mc^24914, Table 1, commercial material, […]
[5] = read-out: MIC (µM) mc^24914, Table 2, synthetic material

| SMILES | MIC [1, 4] | MIC [1, 5] | further results |
| --- | --- | --- | --- |
| COc1cccc(Nc2ccc([N+](=O)[O-])c3nonc23)c1 [JSF-2164, N-(3-methoxyphenyl)-7-nitrobenzo[c][1,2,5]oxadiazol-4-amine] | 30 µM (≈ 8.59 µg/mL) | 25 µM (≈ 7.16 µg/mL) | MIC shift versus the inhA overexpression strain as compared to H37Rv ([1]; mc^24914 vs H37Rv): 3 fold; mutation rate (spontaneous resistance) [2]: ~10^−5 |
| COc1cccc(Nc2ccc(N)c3nonc23)c1 [JSF-3616, N4-(3-methoxyphenyl)-benzo[c][1,2,5]oxadiazole-4,7-diamine] | – | 32 µM (≈ 8.2 µg/mL) | – |
| COc1cccc(Nc2ccc3nonc3c2N)c1 [JSF-3617, N5-(3-methoxyphenyl)benzo[c][1,2,5]oxadiazole-4,5-diamine] | – | 125 µM (≈ 32 µg/mL) | – |
| NNC(=O)c1ccncc1 [isoniazid, reference compound] | 2.5 µM (≈ 0.343 µg/mL) | 2.5 µM (≈ 0.343 µg/mL) | – |
| O=[N+]([O-])c1cn2c(n1)OC[C@@H](OCc1ccc(OC(F)(F)F)cc1)C2 [pretomanid] | – | – | frequency of resistance [3]: 10^−5 to 10^−6 |
| Oc1cc(Cl)ccc1Oc1ccc(Cl)cc1Cl [triclosan, reference compound] | 120 µM (≈ 34.7 µg/mL) | – | – |
